Laboratory results taken from publication PMC5342262, “Synthesis, in vitro and in vivo evaluation of 3β-[^18F]fluorocholic acid for the detection of drug-induced cholestasis in mice” (PLoS ONE, 2017).

Tests used:
[1] = test system: hepatobiliary transport of [^18F]FCA; test: Dynamic PET of [^18F]FCA in control, rifampicin and bosentan treated FVB-mice; conditions: pretreated FVB-mice; dynamic μPET
Experimental: Hepatobiliary transport of the tracer was evaluated in female wild-type FVB mice (5 weeks old, Charles River). The animals were housed in accordance with European Ethics Committee guidelines. The animal studies were approved by the Animal Experimental Ethical Committee of Ghent University (ECD 15/69). Food and water was provided ad libitum. Animals were fasted overnight before the PET-scan.
Mice were anesthetized with 1.5 v:v % isoflurane in 100% O2 for the duration of the experiment. An intravenous polyethylene line was placed in the lateral tail vein. The animals were placed in the small animal PET/CT-scanner (FLEX Triumph II small animal PET/CT-scanner; PET field of view: 7.5 cm axial; 1.3 mm spatial resolution; TriFoil Imaging) on a heated bed. A CT-scan was acquired for anatomical correlation.
The interaction of rifampicin (Sigma Aldrich) and bosentan (Activate Scientific) on in vivo [^18F]FCA transport was examined. FVB-mice were divided into 3 different groups (n = 3 per group): rifampicin, bosentan, and a control DMSO vehicle treated group). Both drugs were administered in doses of 100 mg/kg, intra-peritoneal in DMSO:PBS 70:30 v:v (rifampicin) or DMSO (bosentan) 1 hour before the start of the PET-scan. An additional dose (25 mg/kg for rifampicin in DMSO:PBS 40:60 v:v, 50 mg/kg for bosentan in DMSO) was co-injected intravenously with the tracer.
For each scan, 10 MBq of [^18F]FCA was administered intravenously and a 1 hour dynamic scan was started. Immediately after the dynamic scan, 18 MBq [^18F]FDG was injected intravenously. After 20 minutes, a 20 minutes static scan was taken.
PET-data were obtained in list-mode and were iteratively reconstructed (50 iterations) in frames of 15 seconds for the first 10 minutes, followed by 50 frames of 1 minute. ROI’s were drawn manually over liver, gallbladder and intestines using PMod software. A ROI was drawn in the left ventricle on the static [^18F]FDG scan to obtain an image-derived arterial blood input curve. The uptake of [^18F]FCA in arterial blood, liver, gallbladder and intestines was expressed as a % injected dose (% ID) and normalized for the weight of a 20 gram mouse. Time-activity curves (TAC’s) were generated using these values.
AUC, maximum % ID, and time to peak values were determined for the TAC’s with Graphpad Prism v3.00. Differences between 2 groups were determined with the non-parametric Mann-Whitney U test. P-values ≤ 0.05 were considered significant.

OATP1B1 = biological target: T1, OATP1B1 (Homo sapiens, UniProt Q9Y6L6); test: In vitro uptake assay with [^3H]EbG in HEK-OATP1B1 cells
T1 sequence (Q9Y6L6 1-691): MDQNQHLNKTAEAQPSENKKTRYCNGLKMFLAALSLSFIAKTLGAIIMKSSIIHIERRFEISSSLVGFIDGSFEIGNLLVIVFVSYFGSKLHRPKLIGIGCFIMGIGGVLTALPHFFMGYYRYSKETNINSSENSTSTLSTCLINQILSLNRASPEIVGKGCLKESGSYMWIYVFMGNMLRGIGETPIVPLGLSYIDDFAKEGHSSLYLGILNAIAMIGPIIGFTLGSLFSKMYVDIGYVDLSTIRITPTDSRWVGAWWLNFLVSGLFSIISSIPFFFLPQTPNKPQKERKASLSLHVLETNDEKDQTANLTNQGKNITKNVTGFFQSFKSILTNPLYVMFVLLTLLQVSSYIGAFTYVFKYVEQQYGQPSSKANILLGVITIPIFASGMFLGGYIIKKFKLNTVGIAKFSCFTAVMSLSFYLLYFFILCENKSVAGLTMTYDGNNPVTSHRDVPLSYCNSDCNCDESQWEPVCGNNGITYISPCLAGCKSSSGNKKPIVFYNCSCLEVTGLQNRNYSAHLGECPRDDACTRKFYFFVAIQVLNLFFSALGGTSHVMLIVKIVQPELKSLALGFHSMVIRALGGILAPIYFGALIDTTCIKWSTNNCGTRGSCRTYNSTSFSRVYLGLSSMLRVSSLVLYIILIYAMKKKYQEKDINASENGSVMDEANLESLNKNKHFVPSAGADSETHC
Experimental: (§1) Transport of 3β-fluorocholic acid by NTCP, OATP1B1 and OATP1B3 was assessed using stable transfected cell lines. Chinese hamster ovary (CHO) cells, Human Embryonic Kidney (HEK), HEK293-OATP1B3 cells were purchased from Solvo Biotechnologies; CHO-NTCP and HEK293-OATP1B1 cells were a kind gift from the same company. CHO cells were cultured in Dulbecco’s modified Eagle’s medium (DMEM)/F12 with 10% fetal calf serum, 0.3 mM L-proline, 2 mM glutamine and penicilline/streptomycine (50 U/mL). HEK cells expressing OATP1B1, OATP1B3 and control cell lines were cultured in DMEM glutamax (high glucose/pyruvate) with 10% fetal calf serum, MEM non-essential amino acid supplement and penicilline/streptomycine (50 U/mL). All cell lines were cultured in a 37°C 5% CO2 environment.
(§2) Transport of FCA by the NTCP, OATP1B1 and OATP1B3 transporters was assessed by inhibition of the tritium labeled model substrates uptake.
(§3) Cells were seeded in 24-well plates at 400,000 cells per well. […] The plates were cooled on ice and 1 mL 1% BSA ice-cold HBSS (with Ca and Mg) was added. Cells were washed twice with 2 mL ice-cold HBSS (with Ca and Mg) and were finally lysed with 250 μL 0.1 M NaOH. […] Of the lysate, 150 μL was used for liquid scintillation counting (TriCarb 2900 TR; Perkin Elmer) and 25 μL was subjected to a BCA assay (ThermoFisher Scientific) to determine protein content. Data points were collected in triplicate. IC50-values were calculated with Graphpad Prism v3.00 (Graphpad software).

BSEP = BSEP (Homo sapiens, UniProt O95342); test: In vitro efflux competition assay with [^3H]TC in BSEP membrane vesicles
Sequence of BSEP (O95342 whole entry): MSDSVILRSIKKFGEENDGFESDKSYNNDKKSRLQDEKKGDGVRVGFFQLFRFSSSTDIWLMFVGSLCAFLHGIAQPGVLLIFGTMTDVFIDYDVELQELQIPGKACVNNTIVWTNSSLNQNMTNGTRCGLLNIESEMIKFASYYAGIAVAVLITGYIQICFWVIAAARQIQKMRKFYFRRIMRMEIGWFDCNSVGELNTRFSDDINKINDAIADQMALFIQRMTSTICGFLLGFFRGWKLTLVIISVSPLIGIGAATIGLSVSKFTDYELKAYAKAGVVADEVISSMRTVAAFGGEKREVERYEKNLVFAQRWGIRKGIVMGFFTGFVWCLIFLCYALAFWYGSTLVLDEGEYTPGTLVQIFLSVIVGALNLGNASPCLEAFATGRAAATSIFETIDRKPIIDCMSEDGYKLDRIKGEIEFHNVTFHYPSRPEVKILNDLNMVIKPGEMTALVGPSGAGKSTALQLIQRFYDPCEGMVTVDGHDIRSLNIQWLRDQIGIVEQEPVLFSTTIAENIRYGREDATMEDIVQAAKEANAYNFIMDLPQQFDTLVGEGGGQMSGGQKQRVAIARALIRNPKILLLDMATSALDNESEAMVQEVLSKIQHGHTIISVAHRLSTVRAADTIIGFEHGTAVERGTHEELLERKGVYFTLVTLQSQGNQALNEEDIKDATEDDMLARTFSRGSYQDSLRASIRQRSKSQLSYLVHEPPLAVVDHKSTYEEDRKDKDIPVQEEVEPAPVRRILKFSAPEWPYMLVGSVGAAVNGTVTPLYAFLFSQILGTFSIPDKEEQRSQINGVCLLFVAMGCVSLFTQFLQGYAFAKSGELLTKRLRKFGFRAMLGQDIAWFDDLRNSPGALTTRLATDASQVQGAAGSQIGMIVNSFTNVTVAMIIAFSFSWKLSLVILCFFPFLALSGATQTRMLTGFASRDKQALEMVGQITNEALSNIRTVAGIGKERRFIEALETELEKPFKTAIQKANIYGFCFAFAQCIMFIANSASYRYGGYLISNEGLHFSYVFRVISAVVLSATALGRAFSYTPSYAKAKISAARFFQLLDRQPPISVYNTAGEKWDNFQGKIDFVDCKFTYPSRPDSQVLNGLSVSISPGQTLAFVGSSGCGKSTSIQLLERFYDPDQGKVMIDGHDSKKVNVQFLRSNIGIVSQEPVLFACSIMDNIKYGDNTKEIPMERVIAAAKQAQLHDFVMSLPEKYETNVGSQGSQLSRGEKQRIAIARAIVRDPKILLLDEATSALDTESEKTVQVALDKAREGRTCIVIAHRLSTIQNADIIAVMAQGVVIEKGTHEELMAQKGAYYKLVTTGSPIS
Experimental: (§4) The assay was performed in 96-well plates. […] The final volume in each well was 30 μL. The plates were incubated for 10 minutes at 37°C and uptake was halted by the addition of 150 μL ice-cold buffer solution. The contents of each well were transferred to a glass fiber filter plate (Multiscreen HTS plates; Merck Millipore) and washed 3 times with 200 μL of ice-cold buffer solution. Vesicles were lysed by incubation with 100 μL 0.1 M NaOH for 10 minutes at room temperature. An 80 μL aliquot of this solution was used for liquid scintillation counting. Data points were collected in triplicate. IC50-values were calculated with Graphpad Prism v3.00.

MRP2 = MRP2 (Homo sapiens, UniProt Q92887); test: In vitro efflux competition assay with [^3H]EbG in MRP2 membrane vesicles
Sequence of MRP2 (Q92887 whole entry): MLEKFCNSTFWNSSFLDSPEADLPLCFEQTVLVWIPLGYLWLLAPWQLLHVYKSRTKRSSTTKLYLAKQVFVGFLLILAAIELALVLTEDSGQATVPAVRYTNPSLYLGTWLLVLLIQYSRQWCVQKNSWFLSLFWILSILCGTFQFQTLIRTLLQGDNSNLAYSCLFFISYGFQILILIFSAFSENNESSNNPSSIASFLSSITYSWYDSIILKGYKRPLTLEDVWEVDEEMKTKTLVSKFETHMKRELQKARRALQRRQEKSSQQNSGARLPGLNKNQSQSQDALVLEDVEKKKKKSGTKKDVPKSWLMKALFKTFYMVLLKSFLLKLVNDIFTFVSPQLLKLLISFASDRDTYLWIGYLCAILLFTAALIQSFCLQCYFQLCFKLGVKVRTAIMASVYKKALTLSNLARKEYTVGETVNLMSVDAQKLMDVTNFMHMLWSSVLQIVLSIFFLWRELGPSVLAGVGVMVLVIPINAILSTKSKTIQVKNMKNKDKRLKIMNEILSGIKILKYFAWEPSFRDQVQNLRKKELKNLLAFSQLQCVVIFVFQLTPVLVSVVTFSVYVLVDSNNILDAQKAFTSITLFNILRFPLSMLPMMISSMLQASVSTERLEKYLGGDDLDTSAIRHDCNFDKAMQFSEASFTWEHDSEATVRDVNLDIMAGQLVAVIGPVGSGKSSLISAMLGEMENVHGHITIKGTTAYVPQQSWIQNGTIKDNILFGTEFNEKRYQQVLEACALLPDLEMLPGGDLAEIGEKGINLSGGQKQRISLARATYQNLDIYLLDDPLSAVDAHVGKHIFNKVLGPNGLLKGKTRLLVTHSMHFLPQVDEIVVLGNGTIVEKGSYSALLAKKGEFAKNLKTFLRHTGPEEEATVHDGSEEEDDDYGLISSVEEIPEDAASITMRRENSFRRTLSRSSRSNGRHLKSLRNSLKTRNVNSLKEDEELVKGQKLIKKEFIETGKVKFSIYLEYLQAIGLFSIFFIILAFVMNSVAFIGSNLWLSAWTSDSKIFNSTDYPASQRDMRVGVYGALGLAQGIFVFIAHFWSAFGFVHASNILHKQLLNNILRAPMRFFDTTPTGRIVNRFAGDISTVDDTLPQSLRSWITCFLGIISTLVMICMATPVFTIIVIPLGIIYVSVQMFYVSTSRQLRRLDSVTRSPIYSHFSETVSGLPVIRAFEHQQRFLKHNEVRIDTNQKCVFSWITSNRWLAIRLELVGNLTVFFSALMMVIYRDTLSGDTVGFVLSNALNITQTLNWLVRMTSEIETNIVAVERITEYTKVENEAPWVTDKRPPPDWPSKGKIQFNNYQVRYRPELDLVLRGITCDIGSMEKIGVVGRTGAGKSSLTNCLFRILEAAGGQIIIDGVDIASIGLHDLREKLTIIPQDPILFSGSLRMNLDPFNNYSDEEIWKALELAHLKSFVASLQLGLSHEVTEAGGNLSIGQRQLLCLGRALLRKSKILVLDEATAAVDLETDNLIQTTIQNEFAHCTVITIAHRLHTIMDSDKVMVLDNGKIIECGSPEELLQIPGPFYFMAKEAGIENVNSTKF
Experimental: as §4

NTCP = biological target: T2, NTCP (Homo sapiens, UniProt Q14973); test: In vitro uptake assay with [^3H]TC in CHO-NTCP cells
T2 sequence (Q14973 1-349): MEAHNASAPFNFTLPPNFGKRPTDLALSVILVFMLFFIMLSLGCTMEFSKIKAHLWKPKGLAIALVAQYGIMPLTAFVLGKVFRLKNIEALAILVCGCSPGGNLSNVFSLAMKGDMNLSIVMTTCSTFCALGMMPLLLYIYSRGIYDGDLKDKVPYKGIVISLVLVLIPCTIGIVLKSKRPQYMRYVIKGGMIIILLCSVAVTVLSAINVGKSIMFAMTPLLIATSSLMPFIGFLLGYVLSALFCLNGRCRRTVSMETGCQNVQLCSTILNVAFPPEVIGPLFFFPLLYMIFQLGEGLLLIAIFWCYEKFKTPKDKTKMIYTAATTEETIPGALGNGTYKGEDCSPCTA
Experimental: as §1, §2
Cells were seeded in 24-well plates at 400,000 cells per well. After 24 hours, the culture medium was removed and cells were washed twice with 1 mL 10 mM HEPES-Hank’s Balanced Salt Solution (HBSS; with Ca and Mg; 37°C pH 7.4) washing buffer. […] Of the dosing solution, 250 μL was added to the washed cells and incubation took place at 37°C for 15 minutes. The plates were cooled on ice and 1 mL 1% BSA ice-cold HBSS (with Ca and Mg) was added. Cells were washed twice with 2 mL ice-cold HBSS (with Ca and Mg) and were finally lysed with 250 μL 0.1 M NaOH. The plates were shaken for 15 minutes at 37°C. Of the lysate, 150 μL was used for liquid scintillation counting (TriCarb 2900 TR; Perkin Elmer) and 25 μL was subjected to a BCA assay (ThermoFisher Scientific) to determine protein content. Data points were collected in triplicate. IC50-values were calculated with Graphpad Prism v3.00 (Graphpad software).

OATP1B3 = biological target: T3, OATP1B3 (Homo sapiens, UniProt Q9NPD5); test: In vitro uptake assay with [^3H]EbG in HEK-OATP1B3 cells
T3 sequence (Q9NPD5 1-702): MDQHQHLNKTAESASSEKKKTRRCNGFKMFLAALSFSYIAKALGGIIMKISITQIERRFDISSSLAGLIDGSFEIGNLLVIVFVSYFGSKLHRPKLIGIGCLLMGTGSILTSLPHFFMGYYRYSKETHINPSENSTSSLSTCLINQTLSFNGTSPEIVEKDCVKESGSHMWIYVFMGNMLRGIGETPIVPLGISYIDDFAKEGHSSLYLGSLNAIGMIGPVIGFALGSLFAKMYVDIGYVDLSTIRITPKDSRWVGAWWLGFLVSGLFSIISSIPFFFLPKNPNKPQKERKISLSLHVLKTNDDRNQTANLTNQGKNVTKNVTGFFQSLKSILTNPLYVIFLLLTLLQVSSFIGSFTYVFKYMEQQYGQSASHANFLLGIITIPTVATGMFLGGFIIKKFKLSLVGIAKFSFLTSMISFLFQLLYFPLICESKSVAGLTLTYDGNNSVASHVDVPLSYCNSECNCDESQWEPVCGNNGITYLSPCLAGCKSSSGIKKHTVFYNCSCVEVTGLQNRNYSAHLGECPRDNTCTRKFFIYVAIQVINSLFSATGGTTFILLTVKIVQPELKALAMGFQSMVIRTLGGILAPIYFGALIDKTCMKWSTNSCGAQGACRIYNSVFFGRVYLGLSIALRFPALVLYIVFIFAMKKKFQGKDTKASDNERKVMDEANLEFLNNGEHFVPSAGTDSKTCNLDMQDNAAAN
Experimental: as §1, §2, §3

[2] = cited from earlier work
[3] = parameters: method as in PMID 27513813; conditions: cited from earlier work
[4] = 15 minutes of incubation without added FCA

Compound: COc1ccccc1Oc1c(NS(=O)(=O)c2ccc(C(C)(C)C)cc2)nc(-c2ncccn2)nc1OCCO [Bosentan, bosentan, reference compound]
- effect on hepatobiliary transport of [^18F]FCA [1]: significantly inhibited

Compound: C[C@H](CCC(=O)O)[C@H]1CC[C@H]2[C@@H]3[C@H](O)C[C@@H]4C[C@@H](F)CC[C@]4(C)[C@H]3C[C@H](O)[C@]12C [FCA, 3β-Fluoro-7α,12α-Dihydroxy-5β-Cholanic acid]
- IC50 (OATP1B1): 10.5 ± 1.1 µM
- IC50 (BSEP): 253 ± 76 µM
- IC50 (MRP2): 577 ± 300 µM
- IC50 (NTCP): 6.6 ± 0.8 µM
- IC50 (OATP1B3): 25.2 ± 12.7 µM

Compound: CO[C@H]1/C=C/O[C@@]2(C)Oc3c(C)c(O)c4c(O)c(c(/C=N/N5CCN(C)CC5)c(O)c4c3C2=O)NC(=O)/C(C)=C\C=C\[C@H](C)[C@H](O)[C@@H](C)[C@@H](O)[C@@H](C)[C@H](OC(C)=O)[C@@H]1C [Rifampicin, rifampicin]
- effect on ^99mTc mebrofenin canalicular efflux on the SPECT-scan ([2]; not told): complete block of canalicular efflux

Compound: C[C@]12CC[C@@H]3c4ccc(O)cc4CC[C@H]3[C@@H]1CC[C@@H]2O[C@@H]1O[C@H](C(=O)O)[C@@H](O)[C@H](O)[C@H]1O [[^3H]EbG, [^3H]estradiol-17β-glucuronide]
- uptake in HEK-OATP1B1 (OATP1B1; [4]): 84.0 ± 7.7 pmol/mg protein
- uptake in HEK-OATP1B1 (kinetic profile) (OATP1B1; S2 file, 1 µM, 15 minutes): 163.9 pmol/mg protein
- uptake in HEK-OATP1B1 versus control (OATP1B1; S2 file, 15 minutes): 115 times
- uptake in MRP2 vesicles (MRP2; 10 minutes of incubation): 18.5 ± 3.8 pmol/mg protein
- uptake in HEK-OATP1B3 (OATP1B3; [4]): 8.6 ± 1.3 pmol/mg protein
- uptake in HEK-OATP1B3 (kinetic profile) (OATP1B3; S2 file, 1 µM, 15 minutes): 19.0 pmol/mg protein
- uptake in HEK-OATP1B3 versus control (OATP1B3; S2 file, 15 minutes): 13 times

Compound: C[C@H](CCC(=O)NCCS(=O)(=O)O)[C@H]1CC[C@H]2[C@@H]3[C@H](O)C[C@@H]4C[C@H](O)CC[C@]4(C)[C@H]3C[C@H](O)[C@]12C [[^3H]TC, [^3H]taurocholate]
- uptake in CHO-NTCP cells (NTCP; [4]): 95.2 ± 6.0 pmol/mg protein
- uptake in CHO-NTCP cells (kinetic profile) (NTCP; S2 file, 1 µM, 15 minutes of incubation): 135.5 pmol/mg protein
- uptake in CHO-NTCP cells versus control (NTCP; S2 file, 15 minutes): 101 fold

Compound: Cc1cc(C)c(NC(=O)CN(CC(=O)[O-])CC(=O)[O-])c(C)c1Br.Cc1cc(C)c(NC(=O)CN(CC(=O)[O-])CC(=O)[O-])c(C)c1Br.[99Tc+4] [^99mTc-mebrofenin, ^99mTc Mebrofenin]
- % ID in gallbladder and intestines ([2]; FVB-mice): 78.1 % ID
- maximum % ID liver ([2]; FVB-mice): 51.8 % ID
- time to reach maximum % ID in liver ([2]; FVB-mice): 2.2 min

Compound: [^99mTc]-DTPA-CA [^99mTc CA]
- max % ID liver [3]: 25.7 % ID
- maximal % ID in gallbladder and intestines [3]: 47.8 % ID
- time to reach max % ID in liver [3]: 12.0 min

Compound: [^99mTc]-DTPA-CDCA [^99mTc CDCA]
- max % ID liver [3]: 37.3 % ID
- maximal % ID in gallbladder and intestines [3]: 62.2 % ID
- time to reach max % ID in liver [3]: 12.7 min
